Source: patent US20210238187A1, “AZIRIDINE CONTAINING EPOTHILONE ANALOGS, METHODS OF SYNTHESIS, METHODS OF TREATMENT, AND DRUG CONJUGATES” (WILLIAM MARSH RICE UNIVERSITY, priority 2017, published 2021)
Where two headings read alike, the source gives them in different places. Non-standard residues stand in square brackets, D forms with d. Residues, ends and D or L forms follow the SMILES beside them. *: point of attachment. Dolaproine = CO[C@@H]([C@@H]1CCCN1)[C@@H](C)C(=O)O; Dil = CC[C@H](C)[C@H](NC)[C@@H](CC(=O)O)OC; X1 = C[C@@H](N*)[C@@H](O)c1ccccc1; NMeV = CN[C@H](C(=O)O)C(C)C

What was measured:
MES SA = experiment: Cytotoxicity assay (CellTiter-Glo), MES SA; type: cell-based, human; settings: read-out: Cancer cell lines IC50, MES SA
MES SA DX = experiment: Cytotoxicity assay (CellTiter-Glo), MES SA DX; type: cell-based, human; settings: read-out: Cancer cell lines IC50, MES SA DX
[1] = test system: MES SA, MES SA DX, and HEK 293T; experiment: Cytotoxicity (IC50), summary over MES SA, MES SA DX and HEK 293T; type: cell-based, human; settings: read-out: IC50 against all three cell lines (summary of Table 4)
Tubulin = Tubulin assembly induction; type: biochemical; settings: […]
MCF-7 = experiment: Cytotoxicity (GI50) assay, MCF-7; type: cell-based, human; settings: Homo sapiens, MCF7, read-out: Cancer cell lines GI50, MCF-7
OVCAR-8 = experiment: Cytotoxicity (GI50) assay, OVCAR-8; type: cell-based, human; settings: Homo sapiens, OVCAR-8, read-out: Cancer cell lines GI50, OVCAR-8
NCI/ADR-RES = experiment: Cytotoxicity (GI50) assay, NCI/ADR-RES; type: cell-based, human; settings: Homo sapiens, NCI/ADR-RES, read-out: Cancer cell lines GI50, NCI/ADR-RES
MDA-MB-435 = experiment: Cytotoxicity (GI50) assay, MDA-MB-435; type: cell-based, human; settings: Homo sapiens, MDA-MB-435, read-out: Cancer cell lines GI50, MDA-MB-435
SNB-75 = experiment: Cytotoxicity (GI50) assay, SNB-75; type: cell-based, human; settings: Homo sapiens, SNB-75, read-out: Cancer cell lines GI50, SNB-75
HEK 293T = experiment: Cytotoxicity assay (CellTiter-Glo), HEK 293T; type: cell-based; settings: Homo sapiens, 72 h, read-out: Cancer cell lines IC50, HEK 293T
[2] = human uterine sarcoma cell line, 72 hours, CellTiter-Glo

Compound	IC50 (MES SA; [2])	IC50 (MES SA DX)	IC50 [1]	EC50 (Tubulin)	GI50 (MCF-7)	GI50 (OVCAR-8)	GI50 (NCI/ADR-RES)	GI50 (MDA-MB-435)	GI50 (SNB-75)	IC50 (MES SA; Homo sapiens, MES-SA, 72 h)	IC50 (MES SA DX; Homo sapiens, MES-SA, 72 h)	IC50 (HEK 293T)
CC[C@H](C)[C@@H]([C@@H](CC(=O)N1CCC[C@H]1[C@H](OC)[C@@H](C)C(=O)N[C@H](C)[C@@H](O)c1ccccc1)OC)N(C)C(=O)[C@@H](NC(=O)[C@@H](NC)C(C)C)C(C)C [MMAE, monomethyl auristatin E, reference compound] (H-[NMeV]V[Dil][Dolaproine]-X1)	0.096 nM	88.2 nM	≥ 0.068 nM									
CC(=O)OCCN1[C@H]2C[C@@H](/C(C)=C/c3ccn(Cn4cccn4)n3)OC(=O)C[C@H](O)C(C)(C)C(=O)[C@H](C)[C@@H](O)[C@@H](C)CCC[C@]21C (stereo partly drawn) [compound 26, 2-[(1S,3S,7S,10R,11S,12S,16R)-7,11-Dihydroxy-8,8,10,12,16-pentamethyl-5,9-dioxo-3-{(1E)-1-[1-(1H-pyrazol-1-ylmethyl)-1H-pyrazol-3-yl]prop-1-en-2-yl}-4-oxa-17-azabicyclo[14.1.0]heptadec-17-yl]ethyl acetate]				40000 nM	38 nM	38 nM	2700 nM	5.5 nM	50 nM	5.9 nM	> 400 nM	1.72 nM
C/C(=C\c1cnon1)[C@@H]1C[C@@H]2N(CCO)[C@]2(C)CCC[C@H](C)[C@H](O)[C@@H](C)C(=O)C(C)(C)[C@@H](O)CC(=O)O1 (stereo partly drawn) [compound 27, (1S,3S,7S,10R,11S,12S,16R)-7,11-Dihydroxy-17-(2-hydroxyethyl)-8,8,10,12,16-pentamethyl-3-[(1E)-1-(1,2,5-oxadiazol-3-yl)prop-1-en-2-yl]-4-oxa-17-azabicyclo[14.1.0]heptadecane-5,9-dione]				> 60000 nM	140 nM	580 nM	> 5000 nM	120 nM	450 nM	38.9 nM	≥ 2500 nM	11.7 nM
C/C(=C\c1cnsn1)[C@@H]1C[C@@H]2N(CCO)[C@]2(C)CCC[C@H](C)[C@H](O)[C@@H](C)C(=O)C(C)(C)[C@@H](O)CC(=O)O1 (stereo partly drawn) [compound 28, (1S,3S,7S,10R,11S,12S,16R)-7,11-Dihydroxy-17-(2-hydroxyethyl)-8,8,10,12,16-pentamethyl-3-[(1E)-1-(1,2,5-thiadiazol-3-yl)prop-1-en-2-yl]-4-oxa-17-azabicyclo[14.1.0]heptadecane-5,9-dione]				39000 nM	4.5 nM	9 nM	680 nM	3 nM	8 nM	4.58 nM	264 nM	1.93 nM
C/C(=C\c1cc(C)no1)[C@@H]1C[C@@H]2N(CCO)[C@]2(C)CCC[C@H](C)[C@H](O)[C@@H](C)C(=O)C(C)(C)[C@@H](O)CC(=O)O1 (stereo partly drawn) [compound 29, (1S,3S,7S,10R,11S,12S,16R)-7,11-Dihydroxy-17-(2-hydroxyethyl)-8,8,10,12,16-pentamethyl-3-[(1E)-1-(3-methyl-1,2-oxazol-5-yl)prop-1-en-2-yl]-4-oxa-17-azabicyclo[14.1.0]heptadecane-5,9-dione]				45000 nM	9.5 nM	27 nM	390 nM	17 nM	34 nM	6.54 nM	> 70 nM	1.67 nM
C/C(=C\c1snnc1C)[C@@H]1C[C@@H]2N(CCO)[C@]2(C)CCC[C@H](C)[C@H](O)[C@@H](C)C(=O)C(C)(C)[C@@H](O)CC(=O)O1 (stereo partly drawn) [compound 30, (1S,3S,7S,10R,11S,12S,16R)-7,11-Dihydroxy-17-(2-hydroxyethyl)-8,8,10,12,16-pentamethyl-3-[(1E)-1-(4-methyl-1,2,3-thiadiazol-5-yl)prop-1-en-2-yl]-4-oxa-17-azabicyclo[14.1.0]heptadecane-5,9-dione]				> 60000 nM	58 nM	210 nM	2800 nM	48 nM	100 nM	37.8 nM	> 2500 nM	64 nM
C/C(=C\c1cc(-c2ccc(F)cc2)on1)[C@@H]1C[C@@H]2N(CCO)[C@]2(C)CCC[C@H](C)[C@H](O)[C@@H](C)C(=O)C(C)(C)[C@@H](O)CC(=O)O1 (stereo partly drawn) [compound 31, (1S,3S,7S,10R,11S,12S,16R)-3-{(1E)-1-[5-(4-Fluorophenyl)-1,2-oxazol-3-yl]prop-1-en-2-yl}-7,11-dihydroxy-17-(2-hydroxyethyl)-8,8,10,12,16-pentamethyl-4-oxa-17-azabicyclo[14.1.0]heptadecane-5,9-dione]				19000 nM	13 nM	70 nM	50 nM	11 nM	65 nM	1.41 nM	17.1 nM	0.32 nM
C/C(=C\c1csc(-c2nc(C)cs2)n1)[C@@H]1C[C@@H]2N[C@]2(C)CCC[C@H](C)[C@H](O)[C@@H](C)C(=O)C(C)(C)[C@@H](O)CC(=O)O1 [compound 32, (1S,3S,7S,10R,11S,12S,16R)-7,11-Dihydroxy-8,8,10,12,16-pentamethyl-3-[(1E)-1-(4′-methyl-2,2′-bi-1,3-thiazol-4-yl)prop-1-en-2-yl]-4-oxa-17-azabicyclo[14.1.0]heptadecane-5,9-dione]				43000 nM	25 nM	58 nM	170 nM	11 nM	68 nM	25.8 nM	> 400 nM	63.2 nM
C/C(=C\c1ccn(Cn2cccn2)n1)[C@@H]1C[C@@H]2N[C@]2(C)CCC[C@H](C)[C@H](O)[C@@H](C)C(=O)C(C)(C)[C@@H](O)CC(=O)O1 [compound 33, (1S,3S,7S,10R,11S,12S,16R)-7,11-Dihydroxy-8,8,10,12,16-pentamethyl-3-{(1E)-1-[1-(1H-pyrazol-1-ylmethyl)-1H-pyrazol-3-yl]prop-1-en-2-yl}-4-oxa-17-azabicyclo[14.1.0]heptadecane-5,9-dione]				> 60000 nM	140 nM	1100 nM	> 5000 nM	160 nM	450 nM	107 nM	> 2500 nM	175 nM
CSc1nc(/C=C(\C)[C@@H]2C[C@@H]3N(CCS)[C@]3(C)CCC[C@H](C)[C@H](O)[C@@H](C)C(=O)C(C)(C)[C@@H](O)CC(=O)O2)cs1 (stereo partly drawn) [compound 35, (1S,3S,7S,10R,11S,12S,16R)-7,11-Dihydroxy-8,8,10,12,16-pentamethyl-3-{(1E)-1-[2-(methyl-sulfanyl)-1,3-thiazol-4-yl]prop-1-en-2-yl}-17-(2-sulfanylethyl)-4-oxa-17-azabicyclo[14.1.0]-heptadecane-5,9-dione]				> 60000 nM	39 nM	19 nM	30 nM	5.5 nM	32 nM	1.48 nM	17 nM	0.34 nM
CSc1cc(/C=C(\C)[C@@H]2C[C@@H]3N[C@]3(C)CCC[C@H](C)[C@H](O)[C@@H](C)C(=O)C(C)(C)[C@@H](O)CC(=O)O2)nn1C [compound 40, (1S,3S,7S,10R,11S,12S,16R)-7,11-Dihydroxy-8,8,10,12,16-pentamethyl-3-{(1E)-1-[1-methyl-5-(methylsulfanyl)-1H-pyrazol-3-yl]prop-1-en-2-yl}-4-oxa-17-azabicyclo[14.1.0]heptadecane-5,9-dione]				19000 nM	3.5 nM	100 nM	140 nM	3.5 nM	14 nM	0.36 nM	41.6 nM	0.59 nM
CC(=O)[C@@H]1C[C@@H]2N[C@]2(C)CCC[C@H](C)[C@H](O)[C@@H](C)C(=O)C(C)(C)[C@@H](O)CC(=O)O1 [compound 79, (1S,3S,7S,10R,11S,12S,16R)-3-Acetyl-7,11-dihydroxy-8,8,10,12,16-pentamethyl-4-oxa-17-azabicyclo[14.1.0]heptadecane-5,9-dione]				> 60000 nM	> 5000 nM	> 5000 nM	> 5000 nM	> 5000 nM	> 5000 nM	> 2500 nM	> 2500 nM	> 2500 nM
N-acetyl calicheamicin γ1^1 [NAC, reference compound]	0.364 nM	15.3 nM	≥ 0.166 nM									
